Data as given in ChEMBL document CHEMBL1201862, “PubChem BioAssay data set” (2004).
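Following 48 hours of exposure in 96-well plates, responses at five concentrations were used to interpolate endpoints linearly. GI50 marks 50% less growth.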 Activity calls are given as the source filed them. No stated cut-off is given here; in the data, active = GI50 up to about 1.1 µM and inactive = higher.

Tests used:
Experiment in all cases: NCI anticancer screen, dose series, 48 h
786-0 = tested on: 786-0
ACHN = tested on: ACHN
CAKI-1 = tested on: CAKI-1
HCT-116 = tested on: HCT-116
HCT-15 = tested on: HCT-15
HL-60 = tested on: HL-60
HT-29 = tested on: HT-29
IGROV-1 = tested on: IGROV-1
K562 = tested on: K562
KM12 = tested on: KM12
LOX IMVI = tested on: LOX IMVI
MDA-MB-231 = tested on: MDA-MB-231
NCI-H23 = tested on: NCI-H23
NCI-H460 = tested on: NCI-H460
PC-3 = tested on: PC-3
SF-539 = tested on: SF-539
SR = tested on: SR
UACC-257 = tested on: UACC-257

Compound | GI50 (786-0) | GI50 (ACHN) | GI50 (CAKI-1) | GI50 (HCT-116) | GI50 (HCT-15) | GI50 (HL-60) | GI50 (HT-29) | GI50 (IGROV-1) | GI50 (K562) | GI50 (KM12) | GI50 (LOX IMVI) | GI50 (MDA-MB-231) | GI50 (NCI-H23) | GI50 (NCI-H460) | GI50 (PC-3) | GI50 (SF-539) | GI50 (SR) | GI50 (UACC-257)
c1cncc(-c2cc(-c3cc(-c4cccnc4)[nH]n3)n[nH]2)c1 | > 100 µM (inactive) | > 100 µM (inactive) | > 100 µM (inactive) | > 100 µM (inactive) | > 100 µM | > 100 µM (inactive) | > 100 µM (inactive) | > 100 µM (inactive) | > 100 µM (inactive) | > 100 µM (inactive) | > 100 µM (inactive) | > 100 µM (inactive) | > 100 µM (inactive) | > 100 µM (inactive) | > 100 µM (inactive) | > 100 µM (inactive) | > 100 µM (inactive) | > 100 µM (inactive)
CC1S/C(=N\N=C2/C(=O)Nc3ccc(Br)cc32)N(C2CCCCC2)C1=O (stereo not drawn) | 2.59 µM (inactive) | 1.16 µM (inactive) | 1.8 µM (inactive) | 2.24 µM (inactive) | 3.87 µM | 5.85 µM (inactive) | 8.69 µM (inactive) | – | > 100 µM (inactive) | 4.65 µM (inactive) | 3.62 µM (inactive) | 2.18 µM (inactive) | 4.42 µM (inactive) | 3.96 µM (inactive) | 5.36 µM (inactive) | 3.66 µM (inactive) | 5.06 µM (inactive) | 21 µM (inactive)
CC(=O)NCCCCN(CCCNC(C)=O)C(=O)CNS(=O)(=O)c1cccc2c(N(C)C)cccc12 | > 100 µM (inactive) | > 100 µM (inactive) | – | > 100 µM (inactive) | > 100 µM | > 100 µM (inactive) | > 100 µM (inactive) | > 100 µM (inactive) | > 100 µM (inactive) | – | > 100 µM (inactive) | > 100 µM (inactive) | > 100 µM (inactive) | > 100 µM (inactive) | > 100 µM (inactive) | > 100 µM (inactive) | > 100 µM (inactive) | > 100 µM (inactive)
C[C@@H](Cl)[C@H]1CCCN(Cc2ccc(Br)cc2)C1 | > 12.5 µM (inactive) | > 12.5 µM (inactive) | > 12.5 µM (inactive) | – | > 12.5 µM | > 12.5 µM (inactive) | > 12.5 µM (inactive) | > 12.5 µM (inactive) | > 12.5 µM (inactive) | > 12.5 µM (inactive) | > 12.5 µM (inactive) | > 12.5 µM (inactive) | > 12.5 µM (inactive) | > 12.5 µM (inactive) | > 12.5 µM (inactive) | > 12.5 µM (inactive) | > 12.5 µM (inactive) | > 12.5 µM (inactive)
CN1C(=O)N/C(=C\c2ccc(S(=O)(=O)N/N=C/c3ccccc3)cc2)C1=O | 34.8 µM (inactive) | 24.7 µM (inactive) | 21.2 µM (inactive) | 23.8 µM (inactive) | 10.4 µM | 4.93 µM (inactive) | 30.9 µM (inactive) | 42.1 µM (inactive) | 30 µM (inactive) | 15.7 µM (inactive) | 18.1 µM (inactive) | 11 µM (inactive) | 23.3 µM (inactive) | 10.5 µM (inactive) | 22.1 µM (inactive) | – | 10.4 µM (inactive) | 18.4 µM (inactive)
O=C(c1ccco1)N(C(=S)OCc1ccccn1)c1ccccc1 | > 100 µM (inactive) | 86.1 µM (inactive) | > 100 µM (inactive) | > 100 µM (inactive) | > 100 µM | > 100 µM (inactive) | > 100 µM (inactive) | 50.1 µM (inactive) | 75.3 µM (inactive) | > 100 µM (inactive) | > 100 µM (inactive) | > 100 µM (inactive) | > 100 µM (inactive) | – | 59.8 µM (inactive) | 36 µM (inactive) | 1.25 µM (inactive) | > 100 µM (inactive)
Cc1cc2nc3[nH]nc(N)c3nc2cc1C | > 100 µM (inactive) | > 100 µM (inactive) | > 100 µM (inactive) | > 100 µM (inactive) | > 100 µM | > 100 µM (inactive) | > 100 µM (inactive) | > 100 µM (inactive) | > 100 µM (inactive) | > 100 µM (inactive) | > 100 µM (inactive) | > 100 µM (inactive) | > 100 µM (inactive) | > 100 µM (inactive) | > 100 µM (inactive) | – | > 100 µM (inactive) | > 100 µM (inactive)
C/C(=N/NC(=S)N(Cc1ccccn1)Cc1ccccn1)c1cnccn1 | 0.393 µM (active) | 0.306 µM (active) | 0.429 µM (active) | 0.33 µM (active) | 0.458 µM | 0.126 µM (active) | 0.0303 µM (active) | 0.288 µM (active) | 0.519 µM (active) | 0.427 µM (active) | 0.133 µM (active) | 0.646 µM (active) | 0.731 µM (active) | 0.601 µM (active) | 2.49 µM (inactive) | – | 0.578 µM (active) | 0.47 µM (active)
Cc1cc(-c2nc3ccc(F)cc3s2)ccc1NC(=O)[C@H](C)N | 4.66 µM (inactive) | 9.33 µM (inactive) | 8.18 µM (inactive) | 3.28 µM (inactive) | 3.79 µM | 2.07 µM (inactive) | 2.56 µM (inactive) | 2 µM (inactive) | – | 3.97 µM (inactive) | 1.99 µM (inactive) | 10.4 µM (inactive) | 12.9 µM (inactive) | 2.14 µM (inactive) | 11.9 µM (inactive) | 6.32 µM (inactive) | 2.07 µM (inactive) | 5.04 µM (inactive)
CC(C)[C@H](NC(=O)[C@@H](O)[C@H](N)Cc1ccccc1)C(=O)N[C@@H](Cc1ccccc1)C(=O)O | > 100 µM (inactive) | > 100 µM (inactive) | > 100 µM (inactive) | > 100 µM (inactive) | > 100 µM | > 100 µM (inactive) | – | > 100 µM (inactive) | > 100 µM (inactive) | > 100 µM (inactive) | > 100 µM (inactive) | > 100 µM (inactive) | > 100 µM (inactive) | > 100 µM (inactive) | > 100 µM (inactive) | – | > 100 µM (inactive) | > 100 µM (inactive)
COc1ccccc1NC(=O)C(=O)Cc1cnc2ccccc2n1 | > 100 µM (inactive) | > 100 µM (inactive) | > 100 µM (inactive) | > 100 µM (inactive) | > 100 µM | > 100 µM (inactive) | > 100 µM (inactive) | – | > 100 µM (inactive) | > 100 µM (inactive) | > 100 µM (inactive) | > 100 µM (inactive) | > 100 µM (inactive) | > 100 µM (inactive) | > 100 µM (inactive) | > 100 µM (inactive) | > 100 µM (inactive) | > 100 µM (inactive)
C[C@H](CC[C@@H](O)C(C)(C)O)[C@H]1CC[C@@]2(C)[C@@H]3CC=C4[C@@H](CC[C@H](O)C4(C)C)[C@]3(C)C(=O)C[C@]12C [BRYODULCOSIGENIN] | 38.3 µM (inactive) | > 50 µM (inactive) | – | 22 µM (inactive) | 19.2 µM | 24.5 µM (inactive) | 10.8 µM (inactive) | > 50 µM (inactive) | 19.6 µM (inactive) | 15.1 µM (inactive) | 45.9 µM (inactive) | > 50 µM (inactive) | 26.6 µM (inactive) | 31.1 µM (inactive) | 13.7 µM (inactive) | > 50 µM (inactive) | 23.1 µM (inactive) | 49 µM (inactive)
